PMC4965013, “Open Source Drug Discovery with the Malaria Box Compound Collection for Neglected Diseases and Beyond” (PLoS Pathogens, 2016)
Read-outs that look alike come from different tables or passages of the source.

What was measured:
[1] = system: P. falciparum 3D7, HB3, Dd2, W2, K1, FCR3; test: Asexual EC50 image assay, six strains, Ayong; assay type: cell-based; settings: Plasmodium falciparum
P. berghei ookinetes = test: P. berghei Ookinete Development Assay (Pb ODA); assay type: cell-based; settings: Plasmodium berghei
Text: Columns BX- CA, CD-DF: Delves, Ruecker, & Sinden group (Data and methods published in ref [82] except Column CE which is new data) The data represent our primary screening data in the P. falciparum Dual Gamete formation assay (Pf DGFA). They show the functional viability of mature Stage V male and female gametocytes as reported by their ability to undergo gamete formation as reported in the reference. Column CD represents primary screening data in the P. berghei Ookinete Development Assay (Pb ODA) at 1 µM as reported in the reference. Column CE represents a parallel screen in the Pb ODA at 10 µM that has not been published.

[2] = system: Leishmania donovani axenic amastigotes; test: L. donovani axenic amastigotes Scynexis; assay type: cell-based
A. ceylanicum L3 larvae = A. ceylanicum L3 larvae J. Keiser; assay type: cell-based, Ancylostoma ceylanicum; settings: 200µM
Dictyostelium discoideum = test: D. discoideum toxicity assay; assay type: cell-based; settings: 10µM
Protocol: Columns FA-FC: Soldati Group (data presented first in this paper). M. marinum, D. discoideum, and Acathamoeba castellani assays. Each compound of the Malaria Box has been assayed at 10 µM in all three assays. First, the antibiotic activity was assayed directly against Mycobacterium marinum in its culture medium. Second, the toxicity and growth inhibitory effect of the compounds was assayed against the amoeba Dictyostelium discoideum in its culture medium. Finally, the “in cellulo” anti-infective activity of each compound was tested using the intracellular infection system Acanthamoeba castellanii-M. marinum. Values have been normalized using the DMSO carrier. For each assay, values have been normalized to 1.00 using the DMSO carrier, which has no detectable effect on D. discoideum nor M. marinum growth, while rifabutin was used as positive control for the antibiotic assay and the infection assay, as it abolishes M. marinum growth (normalized value under 0.10) in broth at 10 µM and intracellularly at 30 µM [150].

zebrafish embryos = test: Zebrafish embryo toxicity, mortality, behaviour; assay type: in vivo; settings: 10µM
Protocol: Columns FE-FG: BIOBIDE group (data presented first in this paper). Zebrafish embryo toxicity, mortality, and behaviour change. 3 days post fertilization (dPf) zebrafish embryos from AB strain (wild type) were used for in vivo toxicity and behavioural screening. […] Then, embryos were incubated with each compound at 10 µM (1% DMSO) in E3 buffered with HEPES at 10 mM for 48 hours in 24 well plates, 5 embryos per well, 3 wells per condition (n=15). A group treated only with the vehicle was included in each plate as negative control. Afterwards, mortality and morphological alterations were assessed. Toxicity: When an altered phenotype (mortality, developmental abnormalities) appeared in more than 20% of cases it was considered toxic. […] For this purpose, 5dPf larvae (treated and negative controls) were transferred from 24-well treatment plate to 96-well plate, one embryo per well. 96-well plate was introduced in DanioVision system powered by Ethovision (Noldus). The behaviour was evaluated recording a total of 40 minutes in a round of 10 minutes under light and 10 minutes in darkness repeated twice. As activity is expected to differ under light and dark periods, the analysis was performed for each one of the 10 minutes phases. The differences between treated and controls for each parameter (distance, velocity) and phase was considered significant if p value is less than 0.005 (scored y for yes in HeatMap). Also, the p values between 0.01 and 0.005 were taken into account as an indicator of tendency (scored m for maybe in heat map). The toxic character of a compound was determined by the consistent differences (in both dark and light periods) between treated embryos and controls. […] If consistent results could not be obtained, the compound was scored i for indeterminate.

[3] = system: primary human hepatocytes; test: MPCC hepatotoxicity (albumin, urea, morphology); assay type: cell-based; settings: 10µM
[4] = Mouse oral PK single dose; assay type: in vivo; settings: male, CD-1, mouse, plasma, 140 umol/kg; 140 μmol/kg oral
Protocol: Columns GD-GJ: Wuxi Inc. data for MMV (data presented first in this paper) PK/DMPK Parameters: Fasted animals (Male CD-1 mouse, 7-9 weeks age, 30±10 g, n=3) obtained from an approved vendor (SLAC Laboratory Animal Co. Ltd., Shanghai, China or Sino-British SIPPR/BK Laboratory Animal Co. Ltd Shanghai, China) were administered with a single oral dose (140 μmol/kg) using DMSO: 1% HPMC (5:95) as a vehicle. Blood sampling was performed via the submandibular or saphenous vein (t=0.083, 0.25, 1, 2, 4, 6 and 9 h) and transferred into microcentrifuge tubes containing Sodium Heparin (1,000 IU/ml) as anti-coagulant placed on wet ice until processed for plasma by centrifugation at approximately 4°C, 3000×g for 15 min. Plasma samples were stored in polypropylene tubes, quick frozen over dry ice and kept at -70±10°C until LC/MS/MS analysis. LC/MS/MS methods for the quantitative determination compounds plasma levels were developed with an internal standard. […] (Phoenix WinNonlin, version 6.2.1, Pharsight, Mountain View, CA) and expressed as Cmax & AUC0-last. […] AUC0-last is the area under the curve expressed as >12 h*μM (Yes or No). Plasma protein binding assay (PPB) (CD-1 mouse and human) expressed as <95% bound, >95% bound, or >99% bound. Kinetic Solubility at pH 7.4 was determined by liquid chromatography/chemiluminescence nitrogen detection (LC/CLND) and was scored as greater than 20µM (Yes or No). hERG inhibition was measured at 11µM by the QPatch- HT system and is expressed as “Yes” if greater than 45% inhibited at 11µM and “No” if less than or equal to 45% inhibited at 11µM. As part of the Drug-Drug Interaction studies (DDI issues), 5 human and 1 mouse CYP isoforms (1A2, 2C9, 2C19, 2D6, 3A4-M, 3A4-T) were tested for inhibition assay at 10 µM. […] Otherwise DDI issues were scored as “No”. Positive and negative controls were run for each assay (Table 1).

[5] = system: P. falciparum NF54 late-stage gametocytes; settings: 5 µM; ref [55]; cited from earlier work
[6] = system: P. falciparum 3D7A stage V gametocytes, female gamete formation; set-up: method as in ref [73] (a number printed in a supplementary file, which may have a reference list of its own: not looked up in the article's list); settings: 5µM; ref [73]; cited from earlier work
PfPMT = PfPMT (Plasmodium falciparum, UniProt Q8IDQ9); test: PfPMT gene replacement yeast growth
[7] = read-out: P. falciparum 3D7 asexual blood stage EC50 (Image) Ayong
[8] = read-out: P. falciparum Dd2 asexual blood stage EC50 (Image) Ayong
[9] = read-out: P. falciparum FCR3 asexual blood stage EC50 (Image) Ayong
[10] = read-out: P. falciparum HB3 asexual blood stage EC50 (Image) Ayong
[11] = read-out: P. falciparum K1 asexual blood stage EC50 (Image) Ayong
[12] = read-out: P. falciparum W2 asexual blood stage EC50 (Image) Ayong
[13] = read-out: % Inhibition in PfPMT gene replacement yeast, no added choline
[14] = read-out: % Inhibition in PfPMT gene replacement yeast, with added choline

Chain of PfPMT (Q8IDQ9 whole entry): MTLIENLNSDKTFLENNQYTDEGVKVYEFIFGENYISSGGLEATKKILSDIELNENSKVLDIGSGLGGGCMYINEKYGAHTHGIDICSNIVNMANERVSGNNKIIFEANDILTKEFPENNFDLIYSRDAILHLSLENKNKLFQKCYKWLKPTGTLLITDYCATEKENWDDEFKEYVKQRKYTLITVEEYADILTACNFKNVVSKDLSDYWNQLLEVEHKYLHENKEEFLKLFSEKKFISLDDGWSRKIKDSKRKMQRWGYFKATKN

Structure (SMILES): CCN(CC)c1cc(C)c2cc(NC(=O)c3cccc(OC)c3)ccc2n1 [MMV000498]
- EC50 [1, 7]: 1800 nM
- EC50 [1, 8]: 2450 nM
- EC50 [1, 9]: 4560 nM
- EC50 [1, 10]: 2800 nM
- EC50 [1, 11]: 3530 nM
- EC50 [1, 12]: 2740 nM
- inhibition at 10 µM (P. berghei ookinetes): -0.6%
- inhibition at 5 µM [2]: -65%
- Anyclostoma ceylanicum L3 larvae effect (%) (A. ceylanicum L3 larvae): 0%
- Dictyostelium discoideum relative growth DMSO=1 Toxicity Assay (Dictyostelium discoideum): 0.60
- Zebrafish % mortality (zebrafish embryos): 0%
- Human hepatocyte Urea synthesis, 1.0 normal [3]: 0.65
- Human hepatocyte albumin synthesis, 1.0 normal [3]: 0.57
- AUC [4]: > 12 µM·h
- Cmax [4]: > 1000 nM
- gametocyte NF54 late stage (IV-V) % inhibition Cassera [5]: 47%
- 3D7A female gamete formation acridine orange % inhibition [6]: 3%
- inhibition at 100 µM (PfPMT; [13]): 16%
- inhibition at 100 µM (PfPMT; [14]): 0%

Structure (SMILES): COc1cc2cc(C(=O)Nc3ccccc3)c(N)nc2cc1OC [MMV006767]
- EC50 [1, 7]: 592 nM
- EC50 [1, 8]: 357 nM
- EC50 [1, 9]: 931 nM
- EC50 [1, 10]: 812 nM
- EC50 [1, 11]: 1490 nM
- EC50 [1, 12]: 797 nM
- inhibition at 10 µM (P. berghei ookinetes): 39.4%
- inhibition at 5 µM [2]: -49%
- Anyclostoma ceylanicum L3 larvae effect (%) (A. ceylanicum L3 larvae): 0%
- Zebrafish % mortality (zebrafish embryos): 0%
- Zebrafish Toxicity (mortality and dev abnl) (zebrafish embryos): y (altered phenotype (mortality, developmental abnormalities) appeared in more than 20% of cases it was considered toxic)
- Human hepatocyte Urea synthesis, 1.0 normal [3]: 1.00
- Human hepatocyte albumin synthesis, 1.0 normal [3]: 0.82
- AUC [4]: > 12 µM·h
- Cmax [4]: > 1000 nM
- gametocyte NF54 late stage (IV-V) % inhibition Cassera [5]: 7%
- 3D7A female gamete formation acridine orange % inhibition [6]: -3%
- inhibition at 100 µM (PfPMT; [13]): 0%
- inhibition at 100 µM (PfPMT; [14]): 0%

Structure (SMILES): CCN1CCN(c2cc(C)c3cc(NC(=O)c4ccc(OC)c(OC)c4)ccc3n2)CC1 [MMV019074]
- EC50 [1, 7]: 904 nM
- EC50 [1, 8]: 1270 nM
- EC50 [1, 9]: 2610 nM
- EC50 [1, 10]: 1500 nM
- EC50 [1, 11]: 1320 nM
- EC50 [1, 12]: 2950 nM
- inhibition at 10 µM (P. berghei ookinetes): 43%
- inhibition at 5 µM [2]: -34%
- Anyclostoma ceylanicum L3 larvae effect (%) (A. ceylanicum L3 larvae): 0%
- Zebrafish % mortality (zebrafish embryos): 0%
- Zebrafish Toxicity (mortality and dev abnl) (zebrafish embryos): y (altered phenotype (mortality, developmental abnormalities) appeared in more than 20% of cases it was considered toxic)
- Human hepatocyte Urea synthesis, 1.0 normal [3]: 0.58
- Human hepatocyte albumin synthesis, 1.0 normal [3]: 0.51
- AUC [4]: < 12 µM·h
- Cmax [4]: > 1000 nM
- gametocyte NF54 late stage (IV-V) % inhibition Cassera [5]: 27%
- 3D7A female gamete formation acridine orange % inhibition [6]: -18%
- inhibition at 100 µM (PfPMT; [13]): 0%
- inhibition at 100 µM (PfPMT; [14]): 0%

Structure (SMILES): COc1ccc(C(=O)Nc2ccc3nc(N4CCCCC4)cc(C)c3c2)cc1OC [MMV019758]
- EC50 [1, 7]: 1600 nM
- EC50 [1, 8]: 3290 nM
- EC50 [1, 10]: 3440 nM
- EC50 [1, 12]: 4470 nM
- inhibition at 10 µM (P. berghei ookinetes): 35.4%
- inhibition at 5 µM [2]: -50%
- Anyclostoma ceylanicum L3 larvae effect (%) (A. ceylanicum L3 larvae): 0%
- Dictyostelium discoideum relative growth DMSO=1 Toxicity Assay (Dictyostelium discoideum): 0.88
- Zebrafish % mortality (zebrafish embryos): 13%
- Zebrafish Toxicity (mortality and dev abnl) (zebrafish embryos): y (altered phenotype (mortality, developmental abnormalities) appeared in more than 20% of cases it was considered toxic)
- Human hepatocyte Urea synthesis, 1.0 normal [3]: 0.66
- Human hepatocyte albumin synthesis, 1.0 normal [3]: 0.58
- AUC [4]: > 12 µM·h
- Cmax [4]: > 1000 nM
- gametocyte NF54 late stage (IV-V) % inhibition Cassera [5]: 56%
- inhibition at 100 µM (PfPMT; [13]): 0%
- inhibition at 100 µM (PfPMT; [14]): 0%

Structure (SMILES): CCOC(=O)c1cnc2ccc(OC)cc2c1NCc1ccccc1 [MMV665813]
- EC50 [1, 8]: 3320 nM
- inhibition at 10 µM (P. berghei ookinetes): 33.4%
- inhibition at 5 µM [2]: 52%
- Anyclostoma ceylanicum L3 larvae effect (%) (A. ceylanicum L3 larvae): 0%
- Dictyostelium discoideum relative growth DMSO=1 Toxicity Assay (Dictyostelium discoideum): 0.71
- Zebrafish % mortality (zebrafish embryos): 100%
- Zebrafish Toxicity (mortality and dev abnl) (zebrafish embryos): y (altered phenotype (mortality, developmental abnormalities) appeared in more than 20% of cases it was considered toxic)
- Human hepatocyte Urea synthesis, 1.0 normal [3]: 0.81
- Human hepatocyte albumin synthesis, 1.0 normal [3]: 0.93
- AUC [4]: < 12 µM·h
- Cmax [4]: < 1000 nM
- gametocyte NF54 late stage (IV-V) % inhibition Cassera [5]: 36%
- 3D7A female gamete formation acridine orange % inhibition [6]: -11%
- inhibition at 100 µM (PfPMT; [13]): 0%
- inhibition at 100 µM (PfPMT; [14]): 0%
